PubChem BioAssay (NCI)
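Five concentrations, 48 hours, 96-well plates. Abbreviation: GI50, concentration required for 50% inhibition of growth. TGI is the concentration that stops growth completely.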

Legend:
Assay in all cases: NCI tumour cell line growth inhibition, 48 h
HOP-92 NSCLC = test system: HOP-92 NSCLC
NCI-H23 lung = test system: NCI-H23 lung
COLO 205 colon = test system: COLO 205 colon
UACC-257 melanoma = test system: UACC-257 melanoma
MDA-MB-435 = test system: MDA-MB-435
SF-539 CNS = test system: SF-539 CNS
RXF 393 renal = test system: RXF 393 renal
U251 CNS = test system: U251 CNS
T-47D breast = test system: T-47D breast
SK-MEL-5 melanoma = test system: SK-MEL-5 melanoma
PC-3 prostate = test system: PC-3 prostate
SN12C renal = test system: SN12C renal
MCF7 breast = test system: MCF7 breast
HCC-2998 colon = test system: HCC-2998 colon
OVCAR-4 ovarian = test system: OVCAR-4 ovarian
MALME-3M melanoma = test system: MALME-3M melanoma
NCI-H226 lung = test system: NCI-H226 lung
ACHN renal = test system: ACHN renal
SF-268 CNS = test system: SF-268 CNS
SK-MEL-2 melanoma = test system: SK-MEL-2 melanoma
MDA-MB-231 breast = test system: MDA-MB-231 breast
SR leukemia = test system: SR leukemia
786-0 renal = test system: 786-0 renal
HL-60(TB) leukemia = test system: HL-60(TB) leukemia
OVCAR-3 ovarian = test system: OVCAR-3 ovarian
SNB-19 CNS = test system: SNB-19 CNS
IGROV1 ovarian = test system: IGROV1 ovarian
K-562 leukemia = test system: K-562 leukemia
HCT-15 colon = test system: HCT-15 colon
HCT-116 colon = test system: HCT-116 colon
SW-620 colon = test system: SW-620 colon
OVCAR-5 ovarian = test system: OVCAR-5 ovarian
CCRF-CEM leukemia = test system: CCRF-CEM leukemia
MOLT-4 leukemia = test system: MOLT-4 leukemia
A498 renal = test system: A498 renal
BT-549 breast = test system: BT-549 breast
SNB-75 CNS = test system: SNB-75 CNS
DU-145 prostate = test system: DU-145 prostate
CAKI-1 renal = test system: CAKI-1 renal
NCI-H522 lung = test system: NCI-H522 lung
UACC-62 melanoma = test system: UACC-62 melanoma
UO-31 renal = test system: UO-31 renal
TK-10 renal = test system: TK-10 renal
LOX IMVI melanoma = test system: LOX IMVI melanoma
OVCAR-8 ovarian = test system: OVCAR-8 ovarian
SK-MEL-28 melanoma = test system: SK-MEL-28 melanoma
HOP-62 NSCLC = test system: HOP-62 NSCLC
KM12 colon = test system: KM12 colon
NCI-H460 lung = test system: NCI-H460 lung
HS 578T breast = test system: HS 578T breast
HT29 colon = test system: HT29 colon
NCI/ADR-RES ovarian = test system: NCI/ADR-RES ovarian
SK-OV-3 ovarian = test system: SK-OV-3 ovarian
M14 melanoma = test system: M14 melanoma
A549 NSCLC = test system: A549 NSCLC

CCOC(=O)N1C/C(=C/c2ccc(Cl)cc2)C(=O)/C(=C/c2ccc(Cl)cc2)C1
GI50 (HOP-92 NSCLC): 10.5 µM
TGI (HOP-92 NSCLC): 32 µM
GI50 (NCI-H23 lung): 5.37 µM
TGI (NCI-H23 lung): 27.7 µM
GI50 (COLO 205 colon): 2.96 µM
TGI (COLO 205 colon): 8.83 µM
GI50 (UACC-257 melanoma): 8.54 µM
TGI (UACC-257 melanoma): 23.9 µM
GI50 (MDA-MB-435): 3.33 µM
TGI (MDA-MB-435): 13 µM
GI50 (SF-539 CNS): 2.67 µM
TGI (SF-539 CNS): 7.81 µM
GI50 (RXF 393 renal): 1.69 µM
TGI (RXF 393 renal): 3.34 µM
GI50 (U251 CNS): 1.98 µM
TGI (U251 CNS): 4.18 µM
GI50 (T-47D breast): 3.74 µM
TGI (T-47D breast): 35.5 µM
GI50 (SK-MEL-5 melanoma): 3.43 µM
TGI (SK-MEL-5 melanoma): 13.1 µM
GI50 (PC-3 prostate): 2.94 µM
TGI (PC-3 prostate): 15 µM
GI50 (SN12C renal): 2.84 µM
TGI (SN12C renal): 11.7 µM
GI50 (MCF7 breast): 1.55 µM
TGI (MCF7 breast): 8.04 µM
GI50 (HCC-2998 colon): 2.32 µM
TGI (HCC-2998 colon): 5.29 µM
GI50 (OVCAR-4 ovarian): 3.35 µM
TGI (OVCAR-4 ovarian): 14.4 µM
GI50 (MALME-3M melanoma): 15.4 µM
TGI (MALME-3M melanoma): 32 µM
GI50 (NCI-H226 lung): 16.9 µM
TGI (NCI-H226 lung): 52 µM
GI50 (ACHN renal): 3.04 µM
TGI (ACHN renal): 10.5 µM
GI50 (SF-268 CNS): 3.86 µM
TGI (SF-268 CNS): 14.7 µM
GI50 (SK-MEL-2 melanoma): 19.6 µM
TGI (SK-MEL-2 melanoma): 40.9 µM
GI50 (MDA-MB-231 breast): 2.88 µM
TGI (MDA-MB-231 breast): 9.37 µM
GI50 (SR leukemia): 1.49 µM
TGI (SR leukemia): > 100 µM
GI50 (786-0 renal): 2.08 µM
TGI (786-0 renal): 4.35 µM
GI50 (HL-60(TB) leukemia): 7.04 µM
TGI (HL-60(TB) leukemia): 88.7 µM
GI50 (OVCAR-3 ovarian): 2.22 µM
TGI (OVCAR-3 ovarian): 4.57 µM
GI50 (SNB-19 CNS): 4.66 µM
TGI (SNB-19 CNS): 18.4 µM
GI50 (IGROV1 ovarian): 3.52 µM
TGI (IGROV1 ovarian): 13 µM
GI50 (K-562 leukemia): 3.34 µM
TGI (K-562 leukemia): > 100 µM
GI50 (HCT-15 colon): 2.18 µM
TGI (HCT-15 colon): 7.24 µM
GI50 (HCT-116 colon): 1.04 µM
TGI (HCT-116 colon): 2.72 µM
GI50 (SW-620 colon): 2.06 µM
TGI (SW-620 colon): 4.73 µM
GI50 (OVCAR-5 ovarian): 4.43 µM
TGI (OVCAR-5 ovarian): 19.8 µM
GI50 (CCRF-CEM leukemia): 3.24 µM
TGI (CCRF-CEM leukemia): > 100 µM
GI50 (MOLT-4 leukemia): 4.65 µM
TGI (MOLT-4 leukemia): > 100 µM
GI50 (A498 renal): 12 µM
TGI (A498 renal): 26.4 µM
GI50 (BT-549 breast): 2.41 µM
TGI (BT-549 breast): 5.6 µM
GI50 (SNB-75 CNS): 3.15 µM
TGI (SNB-75 CNS): 16.2 µM
GI50 (DU-145 prostate): 4.36 µM
TGI (DU-145 prostate): 15.9 µM
GI50 (CAKI-1 renal): 4.57 µM
TGI (CAKI-1 renal): > 100 µM
GI50 (NCI-H522 lung): 9.77 µM
TGI (NCI-H522 lung): 22.4 µM
GI50 (UACC-62 melanoma): 3 µM
TGI (UACC-62 melanoma): 14.3 µM
GI50 (UO-31 renal): 2.36 µM
TGI (UO-31 renal): 7.2 µM
GI50 (TK-10 renal): 5.01 µM
TGI (TK-10 renal): 17.6 µM
GI50 (LOX IMVI melanoma): 1.89 µM
TGI (LOX IMVI melanoma): 4.22 µM
GI50 (OVCAR-8 ovarian): 3.81 µM
TGI (OVCAR-8 ovarian): 86.4 µM
GI50 (SK-MEL-28 melanoma): 3.43 µM
TGI (SK-MEL-28 melanoma): 12.7 µM
GI50 (HOP-62 NSCLC): 2.47 µM
TGI (HOP-62 NSCLC): 5.72 µM
GI50 (KM12 colon): 2.1 µM
TGI (KM12 colon): 4.39 µM
GI50 (NCI-H460 lung): 3.86 µM
TGI (NCI-H460 lung): 16.4 µM
GI50 (HS 578T breast): 3.94 µM
TGI (HS 578T breast): 41.8 µM
GI50 (HT29 colon): 1.97 µM
TGI (HT29 colon): 3.95 µM
GI50 (NCI/ADR-RES ovarian): 7.45 µM
TGI (NCI/ADR-RES ovarian): 95.6 µM
GI50 (SK-OV-3 ovarian): 5.42 µM
TGI (SK-OV-3 ovarian): 20.8 µM
GI50 (M14 melanoma): 4.23 µM
TGI (M14 melanoma): 17.8 µM
GI50 (A549 NSCLC): 3.06 µM
TGI (A549 NSCLC): 20.7 µM
